Values quoted from earlier work, collected in publication PMC5950987 (Journal of Diabetes Science and Technology, 2017).

Conditions: administered by needle and syringe

## regular human insulin
  Intraindividual variability of the metabolic effect: 10-30%
